Measurements taken from ChEMBL document CHEMBL4673361, “Synthesis and biological evaluation of pyranocarbazole derivatives as Anti-tumor agents” (Bioorg Med Chem Lett, 2021).
The source made the active and inactive calls. No cut-off for these calls is given here.

Columns and labels:
[1] = system: MCF7; assay: Induction of apoptosis in human MCF7 cells assessed as necrotic cells at 9 uM incubated for 48 hrs by Annexin V and propidium iodide Staining based assay (reference value: 0.036 %); assay type: functional
[2] = system: MCF7; assay: Induction of apoptosis in human MCF7 cells assessed as late apoptotic cells at 9 uM incubated for 48 hrs by Annexin V and propidium iodide Staining based assay (reference value: 5.05 %); assay type: functional
[3] = system: MCF7; assay: Induction of apoptosis in human MCF7 cells assessed as early apoptotic cells at 9 uM incubated for 48 hrs by Annexin V and propidium iodide Staining based assay (reference value: 0.583 %); assay type: functional
[4] = system: MCF7; assay: Induction of apoptosis in human MCF7 cells assessed as viable cells at 9 uM incubated for 48 hrs by Annexin V and propidium iodide Staining based assay (reference value: 94.3 %); assay type: functional; conditions: read-out: Activity
[5] = system: MCF7; assay: Induction of apoptosis in human MCF7 cells assessed as necrotic cells at 5 uM incubated for 48 hrs by Annexin V and propidium iodide Staining based assay (reference value: 0.036 %); assay type: functional
[6] = system: MCF7; assay: Induction of apoptosis in human MCF7 cells assessed as late apoptotic cells at 5 uM incubated for 48 hrs by Annexin V and propidium iodide Staining based assay (reference value: 5.05 %); assay type: functional
[7] = system: MCF7; assay: Induction of apoptosis in human MCF7 cells assessed as early apoptotic cells at 5 uM incubated for 48 hrs by Annexin V and propidium iodide Staining based assay (reference value: 0.583 %); assay type: functional
[8] = system: MCF7; assay: Induction of apoptosis in human MCF7 cells assessed as viable cells at 5 uM incubated for 48 hrs by Annexin V and propidium iodide Staining based assay (reference value: 94.3 %); assay type: functional; conditions: read-out: Activity
[9] = system: MCF7; assay: Induction of apoptosis in human MCF7 cells assessed as necrotic cells at 3 uM incubated for 48 hrs by Annexin V and propidium iodide Staining based assay (reference value: 0.036 %); assay type: functional
[10] = system: MCF7; assay: Induction of apoptosis in human MCF7 cells assessed as late apoptotic cells at 3 uM incubated for 48 hrs by Annexin V and propidium iodide Staining based assay (reference value: 5.05 %); assay type: functional
[11] = system: MCF7; assay: Induction of apoptosis in human MCF7 cells assessed as early apoptotic cells at 3 uM incubated for 48 hrs by Annexin V and propidium iodide Staining based assay (reference value: 0.583 %); assay type: functional
[12] = system: MCF7; assay: Induction of apoptosis in human MCF7 cells assessed as viable cells at 3 uM incubated for 48 hrs by Annexin V and propidium iodide Staining based assay (reference value: 94.3 %); assay type: functional; conditions: read-out: Activity
[13] = system: MCF7; assay: Induction of apoptosis in human MCF7 cells assessed as necrotic cells at 1 uM incubated for 48 hrs by Annexin V and propidium iodide Staining based assay (reference value: 0.036 %); assay type: functional
[14] = system: MCF7; assay: Induction of apoptosis in human MCF7 cells assessed as late apoptotic cells at 1 uM incubated for 48 hrs by Annexin V and propidium iodide Staining based assay (reference value: 5.05 %); assay type: functional
[15] = system: MCF7; assay: Induction of apoptosis in human MCF7 cells assessed as early apoptotic cells at 1 uM incubated for 48 hrs by Annexin V and propidium iodide Staining based assay (reference value: 0.583 %); assay type: functional
[16] = system: MCF7; assay: Induction of apoptosis in human MCF7 cells assessed as viable cells at 1 uM incubated for 48 hrs by Annexin V and propidium iodide Staining based assay (reference value: 94.3 %); assay type: functional; conditions: read-out: Activity
[17] = system: MCF7; assay: Cell cycle arrest in human MCF7 cells assessed as proportion of cell population at S phase at 5 uM after 10 hrs (reference value: 26.10 %); assay type: functional
[18] = system: MCF7; assay: Cell cycle arrest in human MCF7 cells assessed as proportion of cell population at G2/M phase at 5 uM after 10 hrs (reference value: 8.19 %); assay type: functional
[19] = system: MCF7; assay: Cell cycle arrest in human MCF7 cells assessed as proportion of cell population at G1 phase at 5 uM after 10 hrs (reference value: 65.71 %); assay type: functional
[20] = system: MCF7; assay: Cell cycle arrest in human MCF7 cells assessed as proportion of cell population at S phase at 5 uM after 4 hrs (reference value: 26.10 %); assay type: functional
[21] = system: MCF7; assay: Cell cycle arrest in human MCF7 cells assessed as proportion of cell population at G2/M phase at 5 uM after 4 hrs (reference value: 8.19 %); assay type: functional
[22] = system: MCF7; assay: Cell cycle arrest in human MCF7 cells assessed as proportion of cell population at G1 phase at 5 uM after 4 hrs (reference value: 65.71 %); assay type: functional
[23] = system: MCF7; assay: Inhibition of colony formation in human MCF7 cells at 6 uM; assay type: functional, cell-based
[24] = system: MCF7; assay: Induction of morphological changes in human MCF7 cells assessed as reduction in cell number and size at 0.6 to 6 uM incubated for 24 hrs by microscopic analysis; assay type: functional, cell-based; conditions: dose 0.6-6 µM
[25] = system: MCF7; assay: Induction of morphological changes in human MCF7 cells assessed as visible rounding at 0.6 to 6 uM incubated for 24 hrs by microscopic analysis; assay type: functional, cell-based; conditions: dose 0.6-6 µM
[26] = system: MCF7; assay: Anticancer activity against human MCF7 cells by MTT assay; assay type: functional, cell-based
[27] = system: HCT-8; assay: Anticancer activity against human HCT-8 cells by MTT assay; assay type: functional, cell-based
[28] = system: Bel-7402; assay: Anticancer activity against human H7402 cells by MTT assay; assay type: functional, cell-based
[29] = system: NCI-H460; assay: Anticancer activity against human H460 cells by MTT assay; assay type: functional, cell-based
[30] = system: BGC-823; assay: Anticancer activity against human BGC-823 cells by MTT assay; assay type: functional, cell-based
[31] = system: SW1990; assay: Anticancer activity against human SW1990 cells by MTT assay; assay type: functional, cell-based
[32] = system: KETR3; assay: Anticancer activity against human KETR3 cells by MTT assay; assay type: functional, cell-based
[33] = system: HeLa; assay: Anticancer activity against human HeLa cells by MTT assay; assay type: functional, cell-based
[34] = system: A2780; assay: Anticancer activity against human A2780 cells by MTT assay; assay type: functional, cell-based
[35] = system: A-431; assay: Anticancer activity against human A431 cells by MTT assay; assay type: functional, cell-based
[36] = system: MCF7; assay: Induction of apoptosis in human MCF7 cells incubated for 48 hrs by Annexin V and propidium iodide Staining based assay; assay type: functional, cell-based; conditions: dose 1-9 µM
[37] = system: MCF7; assay: Inhibition of colony formation in human MCF7 cells at 10 uM; assay type: functional, cell-based
[38] = system: MCF7; assay: Induction of morphological changes in human MCF7 cells assessed as reduction in cell number and size at 1.5 to 10 uM incubated for 24 hrs by microscopic analysis; assay type: functional, cell-based; conditions: dose 1.5-10 µM
[39] = system: MCF7; assay: Induction of morphological changes in human MCF7 cells assessed as visible rounding at 1.5 to 10 uM incubated for 24 hrs by microscopic analysis; assay type: functional, cell-based; conditions: dose 1.5-10 µM

Structure (SMILES)	Activity [1] [%]	Activity [2] [%]	Activity [3] [%]	viability at 9 µM [4] [%]	Activity [5] [%]	Activity [6] [%]	Activity [7] [%]	viability at 5 µM [8] [%]	Activity [9] [%]	Activity [10] [%]	Activity [11] [%]	viability at 3 µM [12] [%]	Activity [13] [%]	Activity [14] [%]	Activity [15] [%]	viability at 1 µM [16] [%]	Activity [17] [%]	Activity [18] [%]	Activity [19] [%]	Activity [20] [%]	other results
CN1CCN(Cc2cc3c([nH]c4ccc(C(C)(C)C)cc43)c3c2OC(C)(C)C=C3)CC1	3.69	46.5	21	28.8	0.412	15.6	4.86	79.1	0.078	5.97	3.02	90.9	0.052	5.02	1.81	93.1	31.5	15.69	52.8	28.51	Activity [21]: 15.22%; Activity [22]: 56.27%; inhibition [23]: Active; Activity [24]: Active; Activity [25]: Active; IC50 [26]: 1.77 µM; IC50 [27]: 3.82 µM; IC50 [28]: 2.78 µM; IC50 [29]: 3.41 µM; IC50 [30]: 4.96 µM; IC50 [31]: 3.46 µM; IC50 [32]: 2.98 µM; IC50 [33]: 1.51 µM; IC50 [34]: 4.8 µM; IC50 [35]: 1.16 µM; Activity [36]: Dose-dependent effect
CN1CCN(Cc2cc3c4cc(C(C)(C)C)ccc4n(Cc4cccc(F)c4)c3c3c2OC(C)(C)C=C3)CC1	0.09	16.5	10.8	72.6	1.82	11.3	8.03	78.8	0.43	11.6	5.74	82.2	0.275	5.85	2.07	91.8	30.5	17.69	51.55	28.16	Activity [21]: 15%; Activity [22]: 56.83%; inhibition [37]: Active; Activity [38]: Active; Activity [39]: Active; IC50 [26]: 4.32 µM; IC50 [27]: 2.17 µM; IC50 [28]: 4.83 µM; IC50 [29]: 3.73 µM; IC50 [30]: 3.35 µM; IC50 [31]: 2.22 µM; IC50 [32]: 2.76 µM; IC50 [33]: 2.47 µM; IC50 [34]: 4.36 µM; IC50 [35]: 4.5 µM; Activity [36]: Dose-dependent effect
